“Also recorded” adds a separate entry of the source.
How the values were obtained:
[1] = biological target: T1, A/M2-V27A (Influenza A virus, UniProt P0DOF5, V27A); format: cell-based, Influenza A virus (Udorn strain)
[2] = test system: influenza A virus (A/Udorn/72) V27A mutant; format: cell-based
[3] = biological target: T1, A/M2-V27A; conditions: cited from earlier work

| SMILES | inhibition against V27A mutant (in words) [1] | inhibition of A/M2-V27A virus replication [2] | effect of V27A mutation on channel sensitivity to drug [3] |
| --- | --- | --- | --- |
| NC12CC3CC(CC(C3)C1)C2 [Amantadine] | completely unable to inhibit | no inhibition; also recorded: no effect | entirely resistant |
| CC(N)C12CC3CC(CC(C3)C1)C2 (stereo not shown) [rimantadine] |  |  | entirely resistant |

From PMC3354620 (Journal of the American Chemical Society, 2011)
